The values that follow come from US20260364099A1, “GLYCYRRHIZIC ACID HYDROGELS” (KATHOLIEKE UNIVERSITEIT LEUVEN, priority 2023, published 2026).

One assay has as its system Streptococcus. As to the kind of experiment: Antibacterial effect (no effect, bacteriostatic, bactericidal); growth inhibition followed by biocidal plating. The format is cell-based, Streptococcus pyogenes LMG 14237. The settings on record: bactericidal = 3 LOG reduction compared to the inoculum. The procedure:
(§1) The below table summarises the antibacterial effect (no effect, bacteriostatic, bactericidal) of the glycyrrhizic acid hydrogels on different pathogens tested.
The bactericidal effect of 0.5 mL/mL of 5 wt % hydrogel A (shown in grey bars with circles) is compared to growth medium with an adjusted pH (pH 5.2) that is associated with the acidifying effect of hydrogel A (shown in white bars with squares). ns: p>0.05, ****p<0.0001. […]
(§2) Three different formulations of the glycyrrhizic acid hydrogels were made in dH2O: (i) Hydrogel C with pH=3, (ii) Hydrogel B with pH=3.8 and (iii) Hydrogel A with pH=4.2. pH was measured at 70 °C and varied using HCl or NaOH to acidify or alkalify the formulation to the desired pH-value. […]
(§3) To avoid evaporation, the plates were sealed using a membrane (Greiner Bio-one NV). After 24 hours of incubation (37 °C, 200 rpm), the OD595 was measured and relative OD595 was calculated by dividing the OD595 by the average OD595 of the growth control (=growth of cells in MHB without glycyrrhizic acid). […]

Another assay relates to Enterococcus. The description is as above. The format is cell-based, Enterococcus faecalis LMG8148. The following applies: bactericidal = 3 LOG reduction compared to the inoculum. How it is done:
as §1
The bactericidal effect of 0.5 mL/mL of 10 wt % hydrogel C (shown in grey bars with circles) is compared to growth medium with an adjusted pH (pH 4.6) that is associated with the acidifying effect of hydrogel C (shown in white bars with squares). ****p<0.0001. […]
as §2, §3

Another assay relates to MRSA. The assay can be described thus: Growth inhibition evaluation (relative OD595). The format is cell-based, methicillin resistant S. aureus (MRSA), clinical isolate. The settings on record: 25 mg/mL glycyrrhizic acid in solution or 0.5 mL/mL of 5 wt % hydrogel, 24 h, 37 °C. How it is done: (§4) The growth inhibiting effect of 25 mg/mL glycyrrhizic acid in solution and 0.5 mL/mL of 5 wt % hydrogel A, corresponding with a total of 25 mg/mL of glycyrrhizic acid in the system are shown in grey bars with circles. Both are compared to suitable controls (shown in white bars with squares) i.e. growth media with an adjusted pH that is associated with the acidifying effect of glycyrrhizic acid in solution (pH 7.4) and hydrogel A (pH 5.2) but without the presence of glycyrrhizic acid in solution or hydrogel A, respectively. ns: p>0.05, *p<0.05, **p<0.01, ****p<0.0001. […]
as §2
(§5) To avoid evaporation, the plates were sealed using a membrane (Greiner Bio-one NV). After 24 hours of incubation (37 °C, 200 rpm), the OD595 was measured and relative OD595 was calculated by dividing the OD595 by the average OD595 of the growth control (=growth of cells in MHB without glycyrrhizic acid).

Assay [1] has as its system Staphylococcus epidermidis. As to the kind of experiment: Growth inhibition evaluation (relative OD595). The format is cell-based, clinical isolate. The following applies: 25 mg/mL glycyrrhizic acid in solution or 0.5 mL/mL of 5 wt % hydrogel, 24 h, 37 °C. How it is done: as §4, §2, §5
A further assay has as its system Acinetobacter baumanni. As to the kind of experiment: Growth inhibition evaluation (relative OD595). The settings on record: 25 mg/mL glycyrrhizic acid in solution or 0.5 mL/mL of 5 wt % hydrogel, 24 h, 37 °C. It is filed as cell-based, Acinetobacter baumannii RD5SR3. How it is done:
as §4, §2, §5

The next assay deals with Pseudomonas aeruginosa. As to the kind of experiment: Growth inhibition evaluation (relative OD595). The format is cell-based, Pseudomonas aeruginosa LMG9009. The settings on record: 25 mg/mL glycyrrhizic acid in solution or 0.5 mL/mL of 5 wt % hydrogel, 24 h, 37 °C. The procedure: The growth inhibiting effect of 25 mg/mL glycyrrhizic acid in solution and 0.5 mL/mL of 5 wt % hydrogel B, corresponding with a total of 25 mg/mL of glycyrrhizic acid in the system are shown in grey bars with circles. Both are compared to suitable controls (shown in white bars with squares) i.e. growth media with an adjusted pH that is associated with the acidifying effect of glycyrrhizic acid in solution (pH 7.4) and hydrogel B (pH 5) but without the presence of glycyrrhizic acid in solution or hydrogel B, respectively. ns: p>0.05, ****p<0.0001. […]
as §2, §5

The subject of assay [2] is Escherichia coli. As to the kind of experiment: Growth inhibition evaluation (relative OD595). It is filed as cell-based, Escherichia coli UTI89. The following applies: 50 mg/mL glycyrrhizic acid in solution or 0.5 mL/mL of 10 wt % hydrogel, 24 h, 37 °C. The procedure:
(§6) The growth inhibiting effect of 50 mg/mL glycyrrhizic acid in solution and 0.5 mL/mL of 10 wt % hydrogel C, corresponding with a total of 50 mg/mL of glycyrrhizic acid in the system are shown in grey bars with circles. Both are compared to suitable controls (shown in white bars with squares) i.e. growth media with an adjusted pH that is associated with the acidifying effect of glycyrrhizic acid in solution (pH 7.4) and hydrogel C (pH 4.6) but without the presence of glycyrrhizic acid in solution or hydrogel C, respectively. ns: p>0.05, ****p<0.0001. […]
as §2, §5

Another assay has as its system Klebsiella pneumoniae. As to the kind of experiment: Growth inhibition evaluation (relative OD595). It is filed as cell-based, Klebsiella pneumoniae ATCC13883. The settings on record: 50 mg/mL glycyrrhizic acid in solution or 0.5 mL/mL of 10 wt % hydrogel, 24 h, 37 °C. The procedure:
as §6, §2, §5

The next assay deals with Klebsiella aerogenes. As to the kind of experiment: Growth inhibition evaluation (relative OD595). The format is cell-based, Klebsiella aerogenes ATCC13048. The settings on record: 50 mg/mL glycyrrhizic acid in solution or 0.5 mL/mL of 10 wt % hydrogel, 24 h, 37 °C. The procedure:
as §6, §2, §5

A further assay relates to S. pyogenes. The assay can be described thus: Growth inhibition evaluation (relative OD595). It is filed as cell-based, Streptococcus pyogenes LMG 14237. How it is done:
The glycyrrhizic acid concentration is calculated based on the percentage of glycyrrhizic acid in the gel and the amount of this gel used in the assay. Note that the pH at the gel surface is lower than the initial pH of the growth medium on top of the gel due to the acidifying effect of the hydrogel. This pH difference is dependent of the pH of the hydrogel, the percentage of glycyrrhizic acid in the hydrogel and the amount of hydrogel used. The different hydrogels are indicated by color: white circles represent the hydrogel A, grey circles represent hydrogel B and black circles represent the hydrogel C. The 2 grey dots at pH 7.0 in the plot represent the (lack of) activity of glycyrrhizic acid in solution. Of all nine pathogens tested, only Streptococcus pyogenes was inhibited by 50 mg/mL glycyrrhizic acid in solution.
The growth inhibiting effect of 25 mg/mL glycyrrhizic acid in solution and 0.5 mL/mL of 5 wt % hydrogel A, corresponding with a total of 25 mg/mL of glycyrrhizic acid in the system are shown in grey bars with circles. […]
as §2

The subject of the next assay is E. faecalis. As to the kind of experiment: Growth inhibition evaluation (relative OD595). It is filed as cell-based, Enterococcus faecalis LMG8148. The following applies: 25 mg/mL glycyrrhizic acid in solution or 0.5 mL/mL of 5 wt % hydrogel, 24 h, 37 °C. The procedure: as §4, §2, §5
Assay [3] concerns Escherichia coli. The following applies: cited from earlier work.
Another assay relates to Proteus vulgaris. The following applies: cited from earlier work.
Another assay concerns Candida albicans. The following applies: cited from earlier work.
The next assay concerns Streptococci. The settings on record: cited from earlier work.

For `CC1(C)[C@@H](O[C@H]2O[C@H](C(=O)O)[C@@H](O)[C@H](O)[C@H]2O[C@@H]2O[C@H](C(=O)O)[C@@H](O)[C@H](O)[C@H]2O)CC[C@]2(C)[C@H]3C(=O)C=C4[C@@H]5C[C@@](C)(C(=O)O)CC[C@]5(C)CC[C@@]4(C)[C@]3(C)CC[C@@H]12` [glycyrrhizic acid], the “antibacterial effect (no effect, bacteriostatic, bactericidal)” value in the assay on Streptococcus was “Bacterio-”; in the assay on Enterococcus it was “No effect”. Further, the growth inhibiting activity entry (in the assay on MRSA; in assay [1]; with Acinetobacter baumanni; in the assay on Pseudomonas aeruginosa; in the assay on Escherichia coli [2]; with Klebsiella pneumoniae) was “lack of/limited growth inhibiting activity” throughout. Also, the growth inhibiting activity entry in the assay on Klebsiella aerogenes is “lack of/limited growth inhibiting activity”; in the assay with S. pyogenes (S. pyogenes, 25 mg/mL glycyrrhizic acid in solution or 0.5 mL/mL of 5 wt % hydrogel, 24 h, 37 °C) it was “lack of/limited growth inhibiting activity”; in the assay with E. faecalis, “lack of/limited growth inhibiting activity”. Also, the “complete growth inhibition (FIG. 1)” value in the assay on S. pyogenes (50 mg/mL glycyrrhizic acid in solution, only Streptococcus pyogenes of nine pathogens) is “inhibited”. Besides, the “antibacterial potential in solution” value with Escherichia coli [3], in the assay with Proteus vulgaris, in the assay with Candida albicans and in the assay with Streptococci was “lack of activity” in each case.
